Measured values as given in publication PMC12904088, “Development of Dimethylsulfonium Probes for Broad Profiling of Methyllysine Reader Proteins” (Advanced Science, 2025).
Square brackets hold non-standard residues; d marks the D form. Ends that are not written are not given here. Lys(Me3) = C[N+](C)(C)CCCC[C@H](N)C(=O)O

Tests used:
[1] = tested on: PRC2; conditions: cited from earlier work
From the text: (§1) Reader proteins, which specifically recognize methylation modifications at specific sites, are crucial for the biological functions of lysine methylation (Figure 1A).^[ [11], [12], [13], [14] ^] For example, BPTF is a reader of H3K4me3 that is in the NURF complex for RNA polymerase II activities.^[ [15] ^] CBX1 is a reader of H3K9me3 that promotes liquid‐liquid phase separation for the formation of heterochromatin. As a result, the local genes in chromatin are condensed and not accessible to transcription.^[ [16], [17], [18] ^] In addition, readers also play important roles in tumorigenesis. F ...

[2] = tested on: tumor growth; conditions: mouse models; cited from earlier work
From the text: as §1

[3] = tested on: reader proteins (BPTF, CBX1); assay: In vitro crosslinking validation of general competition peptide; type: biochemical; conditions: 2.5 mM general probe, 7.5 mM peptide 13, 10 µM reader, pH 7.5, UV 30 min; Figure 6B
Description: Probes were added to the crosslinking buffer (100 mM HEPES, pH 7.5), followed by the addition of reader proteins. The mixture was transferred to 96‐well plates and incubated on ice for 10 min. After UV irradiation on ice at an energy of 720 mJ cm^−2, the samples were analyzed by UPLC‐Q‐TOF‐MS. The analytical yield was calculated based on the mass peak areas as previously reported.^[ [55] ^] The yield is calculated as the peak area of the desired product divided by the sum of the peak areas of the crosslinking products and the starting material, multiplied by 100%. For crosslinking readers with general probes: The mixture of 5 mM general probes and 10 µM reader proteins (BPTF, CBX1, CDYL2) was crosslinked by the General procedure for crosslinking for 30 min. For competition assays, the mixture of 2.5 mM general probes, 100 µM H3K4me3 (1‐15) or H3K9me3 (1‐15) peptide or 7.5 mM […]me3GG, 10 µM reader proteins (BPTF, CBX1) was crosslinked by the General procedure for crosslinking for 20 min (H3K4me3 or H3K9me3 for competition) or 30 min ([…]me3GG for competition). For Kinetics of reader crosslinking: The mixture of 0.625/1.25/2.5/5/10 mM general probe and 10 µM reader proteins was crosslinked by the General procedure for crosslinking for 20 min. […]

[4] = tested on: HeLa cell nuclei proteins; assay: Proteomic experiment for inhibitor evaluation: probe 12 with MS31 competition; type: cell-based, Homo sapiens
Description: HeLa cells (1.8 × 10^7) were harvested, washed with pre‐cooled phosphate buffer saline (PBS), and lysed in hypotonic buffer (10 mM Tris, 15 mM NaCl, 1.5 mM MgCl2, 0.2 mM PMSF, pH 7.5) on ice with regular inversion for 10–15 min. After centrifugation at 200 g for 5 min at 4°C, the pellet was resuspended in hypotonic buffer and homogenized with three strokes of a loose pestle Dounce homogenizer. The intact nuclei were washed with a hypotonic buffer and collected by centrifugation. Then, the nuclei were resuspended in crosslink buffer (100 mM HEPES, 150 mM KCl, 1.5 mM MgCl2, 0.2 mM PMSF, pH 7.5) and divided into two groups (Group A and Group B), each of which contained three parallel samples. The general probe was added to Group A. The same amount of the general probe and extra competing peptides was added to Group B. These samples were transferred to a 24‐well plate, incubated on ice for 10 min, and irradiated under 313 nm UV for 20 min on ice. Next, the nuclei were washed with crosslinking buffer three times. […]
Label‐free quantification was performed with Proteome Discoverer 2.5, which was used for database searches against the Homo sapiens (Human) proteome database retrieved from UniProtKB (accession UP000005640). […]

[5] = tested on: SPIN2B; assay: Western blot: inhibition of crosslinking of probe 12 by MS31; type: biochemical, human; conditions: 2.5 mM probe 12, 10 µM SPIN2B, 200 µM MS31, 0.5% DMSO, UV 30 min, streptavidin-HRP blot; Figure 5D
Description: BPTF, CBX1, and SPIN1 were expressed and purified as previously reported.^[ [54], [59] ^] Full‐length SPIN2B (residues 1–258) from human was cloned into the pET‐28a vector with an N‐terminal 6×His‐SUMO‐tag. It was over‐expressed in Rosetta (DE3) Escherichia coli cells by induction of 0.25 mM isopropyl β‐D‐thiogalactoside (IPTG) at 16 °C overnight when OD600 reached 0.6–0.8 in the LB medium. The harvested cells were suspended in lysis buffer (20 mM Tris, 150 mM NaCl, 0.2 mM PMSF, pH 7.5) and lysed by sonication; then, the cell lysate was centrifuged to remove the insoluble cell debris. The clarified supernatant was loaded on nickel resin equilibrated in lysis buffer. Afterward, the protein‐bound resin was washed sequentially with lysis buffer, high salt buffer (20 mM Tris, 500 mM NaCl, pH 7.5), and 20 mM imidazole buffer (20 mM Tris, 150 mM NaCl, 20 mM imidazole, pH 7.5). The target proteins were eluted by 200 mM imidazole buffer (20 mM Tris, 150 mM NaCl, 200 mM imidazole, pH 7.5), followed by the solution exchanged to storage buffer (20 mM Tris, 150 mM NaCl, pH 7.5). The product was concentrated, snap‐frozen, and stored at −80°C. […]
For SPIN1 and SPIN2B found in the volcano plot, 5 sets of samples were designed, respectively. […] Finally, the membranes were washed with 1×TBST buffer three times, and the protein bands were detected by enhanced chemiluminescence reagent.

[6] = biological target: SPIN1; conditions: cited from earlier work
From the text: (§2) To verify this approach, we selected MS31, a potent and selective fragment‐like inhibitor that primarily targets the H3K4me3 reader SPIN1 by binding to its Tudor2 domain.^[ [64], [65], [66] ^] […] We used peptide 12, which replaced desthiobiotin of peptide 5 with biotin to enhance binding affinity to streptavidin beads, for a prot ...

[7] = tested on: SPIN2B; conditions: cited from earlier work
From the text: as §2

[8] = tested on: SPIN4; conditions: cited from earlier work
From the text: as §2

[9] = tested on: broad panel of other epigenetic readers and writers; conditions: cited from earlier work
From the text: as §2

## CS(=O)(=O)c1ccc(-c2cnc(NCc3ccco3)n3cnnc23)cc1 [EED226]
[1]
  PRC2 activity inhibition (in words): effectively inhibits PRC2 activity
[2]
  Tumor growth suppression (in words): suppresses tumor growth in mouse models

## RKGGGGGG[Lys(Me3)]GG [peptide 13]
[3]
  Competition of general probe crosslinking by peptide 13: three equivalents of the peptide were sufficient to achieve complete competition

## COc1c(CN)cc(CN)cc1OCCCN1Cc2ccccc2C1 [MS31]
[4]; 2.5 mM probe 12 vs + 200 µM MS31, 313 nm UV 20 min, Log2(Fold Change) ≥0.5, p ≤ 0.05, n = 3
  Proteins significantly enriched (MS31 competition): 21 proteins
[4]; 2.5 mM probe 12 vs + 200 µM MS31, Log2(Fold Change) ≥0.5, p ≤ 0.05, n = 3
  Known MS31 targets identified among enriched proteins: the expected primary target SPIN1 was identified, along with two other SPIN family members, SPIN4 and SPIN2B
[5]
  Inhibition of crosslinking between SPIN2B and probe 12: can be inhibited by MS31
[6]
  Kd: 91 nM
[7]
  Binding affinity (in words): moderate binding affinity
[8]
  Binding affinity (in words): moderate binding affinity
[9]
  Selectivity (in words): high selectivity over a broad panel of other epigenetic readers and writers
